Measurements taken from US20250163119A1, “COMPOUNDS FOR THE TREATMENT OF DIABETES OR OBESITY” (Eli Lilly and Company, priority 2023, published 2025).
*1 amine or outer side, *2 acyl side, *3 side chain or, on linkers, in order; H or OH if unused. Where a SMILES comes first, the peptide text is derived from it. Side-chain parts run from the residue outwards. [ ]: non-standard residue; d: D form. The star is where a group is joined. C20 diacid = O=C(O)CCCCCCCCCCCCCCCCCCC(=O)*; γGlu = O=C(O)[C@H](CCC(=O)[*:2])N[*:1]; NMeI = CC[C@H](C)[C@H](NC)C(=O)O; AEEA = NCCOCCOCC(=O)O

Legend:
[1] = tested on: MHC-II presented peptides on human dendritic cells; assay: MAPPS assay (MHC-Associated Peptide Proteomics); type: cell-based
Outline: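 Peptides eluted from anti-MHC-II immunoprecipitates of day-6 DC lysates were sequenced by MS, mapped onto the parent test molecule, and scored as percentage of donors presenting each region. DCs derived from donor CD14+ cells (IL-4, GM-CSF) received test molecules on day 4, then LPS maturation on day 5.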

CD4+ T cells = assay: T cell proliferation assay; type: cell-based, human
Description: This assay assessed the ability of tested antibodies or tested MAPPS peptides to activate CD4+ T cells by inducing cellular proliferation. CD8+ T cell depleted PBMC's were prepared and labeled with CFSE. Each sample was tested with media control, keyhole limpet haemocyanin (KLH; positive clinical benchmark control), tested antibodies, or tested MAPPS peptides. Cultures were incubated for 7 days. On day 7, samples were analyzed by flow cytometry.

CC[C@H](C)[C@H](NC)C(=O)N[C@H](C(=O)N[C@@H](CC(C)C)C(=O)N[C@@H](CO)C(=O)N[C@@H](CC(C)C)C(=O)N[C@@H](CC(=O)O)C(=O)N[C@H](C(=O)N1CCC[C@H]1C(=O)N[C@H](C(=O)NCC(=O)N[C@@H](CC(C)C)C(=O)N[C@@H](CC(C)C)C(=O)N[C@@H](CCC(N)=O)C(=O)N[C@H](C(=O)N[C@@H](CC(C)C)C(=O)N[C@@H](CC(C)C)C(=O)N[C@@H](CCC(=O)O)C(=O)N[C@@H](CCC(N)=O)C(=O)N[C@@H](CCC(=O)O)C(=O)N[C@@H](CCCCN)C(=O)N[C@@H](CCC(N)=O)C(=O)N[C@@H](CCC(=O)O)C(=O)N[C@@H](CCCCN)C(=O)N[C@@H](CCC(=O)O)C(=O)N[C@@H](CCCCN)C(=O)N[C@@H](CCC(N)=O)C(=O)N[C@@H](CCC(N)=O)C(=O)N[C@@H](C)C(=O)N[C@@H](CCCCNC(=O)COCCOCCNC(=O)COCCOCCNC(=O)CC[C@H](NC(=O)CC[C@H](NC(=O)CCCCCCCCCCCCCCCCCCC(=O)O)C(=O)O)C(=O)O)C(=O)N[C@H](C(=O)N[C@@H](CC(N)=O)C(=O)N[C@@H](C)C(=O)N[C@@H](CCC(N)=O)C(=O)N[C@H](C(=O)N[C@@H](CC(C)C)C(=O)N[C@@H](C)C(=O)N[C@@H](CCC(N)=O)C(=O)N[C@H](C(N)=O)C(C)C)[C@@H](C)CC)[C@@H](C)O)[C@@H](C)CC)[C@@H](C)CC)C(C)C)C(C)C [SEQ ID NO: 54] (H-[NMeI]VLSLDVPIGLLQILLEQEKQEKEKQQAK([AEEA-AEEA-γGlu-γGlu-C20 diacid])TNAQILAQV-NH2)
MAPPS Assay >10 donors with diverse MHC ([1]; donors displaying MHC-II peptides / donors tested): 7/10
peptides displayed on MHC-II complexes ([1]; human dendritic cells from normal donors): at least one peptide cluster on MHC-II complexes in a subset of donors
MAPPS Assay >10 donors with diverse MHC ([1]; percentage of donors displaying MHC-II peptides): 70%
CD4+ T cell proliferation response in donors (CD4+ T cells; CD8+ T cell depleted PBMCs, 7 days, ten donors): elicited a response in four out of ten donors
T Cell Proliferation Assay: protein 7-10 donors with diverse MHC (CD4+ T cells; responding donors / donors tested): 4/10
